# pKi: −log10 of the molar value. *1 amine or outer side, *2 acyl side, *3 side chain or, on linkers, in order; H or OH if unused. Where a SMILES comes first, the peptide text is derived from it. [ ]: non-standard residue; d: D form. The star is where a group is joined. Pro(3R,4S-CMe2) = CC1(C)[C@@H]2[C@@H](C(=O)O)NC[C@@H]21; Abu(4,4-F2) = N[C@@H](CC(F)F)C(=O)O; Phg = N[C@H](C(=O)O)c1ccccc1; Tle = CC(C)(C)[C@H](N)C(=O)O; Boc = CC(C)(C)OC(=O)*; CO = O=C([*:1])[*:2]; NHtBu = CC(C)(C)N*; X2 = CC1(N*)CCCCC1; βAla = NCCC(=O)O
# Target: T1, HCV NS3/NS4a serine protease (Hepatitis C virus genotype 1b, UniProt P26663)
# T1 construct: amino terminus of the NS3 protease domain (amino acids 3-181) with a tetrapeptide linker; made in house; host or cells: E. coli
# Assay: Spectrophotometric assay for HCV protease inhibitory activity (chromogenic ester substrates)
# Format: biochemical, hepatitis C virus (strain 1b)
# Conditions: Ki Rating, Table 2; single chain NS4A21-32-GSGS-NS3 3-181 protease, 30° C., pH 6.5
# Description: Spectrophotometric Assay: Spectrophotometric assays for the HCV serine protease were performed on the inventive compounds by following the procedure described by R. Zhang et al., Analytical Biochemistry, 270 (1999) 268-275, the disclosure of which is incorporated herein by reference. The assay based on the proteolysis of chromogenic ester substrates is suitable for the continuous monitoring of HCV NS3 protease activity.
# HCV NS3 protease (strain 1b) and its NS4A cofactor were constructed as a recombinant single chain protein. The NS4A cofactor domain (amino acid residues 21-32) was fused in frame to the amino terminus of the NS3 protease domain (amino acids 3-181) with a tetrapeptide linker. This NS4A 21-32-GSGS-NS33-181 construct was then expressed in E. coli and purified to >90% homogeneity. Kinetic parameters were determined and found to be the same as that of the full length NS31-631/NS4A1-54 protein complex produced in the baculovirus system (D. L. Sali et al, Biochemistry, 37 (1998) 3392-340). The details of the cloning, expression, purification and kinetic analysis of the of the single chain recombinant protease have been previously described (S. S. Taremi, et al. Protein Science. 7 (1998) 2143-2149.
# Protein concentrations were determined by the Biorad dye method using recombinant HCV protease standards previously quantified by amino acid analysis. Prior to assay initiation, the enzyme storage buffer (50 mM sodium phosphate pH 8.0, 300 mM NaCl, 10% glycerol, 0.05% lauryl maltoside and 10 mM DTT) was exchanged for the assay buffer (25 mM MOPS pH 6.5, 300 mM NaCl, 10% glycerol, 0.05% lauryl maltoside, 5 μM EDTA and 5 μM DTT) utilizing a Biorad Bio-Spin P-6 prepacked column.
# Protease Assay: HCV protease assays were performed at 30° C. using a 200 μl reaction mix in a 96-well microtiter plate. Assay buffer conditions (25 mM MOPS pH 6.5, 300 mM NaCl, 10% glycerol, 0.05% lauryl maltoside, 5 μM EDTA and 5 μM DTT) were optimized for the NS3/NS4A heterodimer (D. L. Sali et al, ibid.)). Typically, 100 μl mixtures of buffer, substrate and inhibitor were placed in wells and allowed to preincubate at 30° C. for approximately 3 minutes. One hundred μls of pre-warmed protease (30° C.) in assay buffer, was then used to initiate the reaction to produce a final concentration of 1.3 nM HCV). The Substrate cleavage by the protease was monitored over 60 minutes by measuring the release of the phenylazophenol (PAP) product at an absorbance of 370 nm with a continuous read every 30 seconds using a SpectraMax Plus microtiter plate reader (Molecular Devices, Sunnyvale, Calif.). Background hydrolysis of the substrate was subtracted. Inhibitors were tested over a range of concentrations (final DMSO concentration 4%)
# Evaluation of Inhibitors The inhibition constants (Ki) for the competitive inhibitors were determined experimentally at fixed concentrations of enzyme and substrate by plotting vo/vi vs. inhibitor concentration ([I]o) according to the rearranged Michaelis-Menten equation for competitive inhibition kinetics: vo/vi=1+[I]o/(Ki(1+[S]o/Km)), where vo is the uninhibited initial velocity, vi is the initial velocity in the presence of inhibitor at any given inhibitor concentration ([I]o) and [S]o is the substrate concentration used. The resulting data were fitted using linear regression and the resulting slope, 1/(Ki(1+[S]o/Km), was used to calculate the Ki value.
# T1 sequence (P26663 1013-1207, looked up, natural form): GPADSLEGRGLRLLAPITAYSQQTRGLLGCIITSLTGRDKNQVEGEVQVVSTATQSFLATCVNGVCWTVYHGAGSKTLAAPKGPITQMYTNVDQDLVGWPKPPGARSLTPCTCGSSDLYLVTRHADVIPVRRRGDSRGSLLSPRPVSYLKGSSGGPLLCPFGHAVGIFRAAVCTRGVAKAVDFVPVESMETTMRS
row,Compound,pKi
1,CC1(C)C[C@H]2[C@H](CN(C(=O)[C@@H](NC(=O)OCc3ccccc3)C3CCCCC3)[C@@H]2C(=O)N[C@@H](CC(F)F)C(=O)NCCc2ccccc2)O1 [Example 158],< 6.30
2,CC(C)[C@H](NC(=O)N[C@H](C(=O)N1C[C@H]2[C@@H]([C@H]1C(=O)NC(CC(F)F)C(=O)O)C2(C)C)C(C)(C)C)C(=O)OC(C)(C)C (stereo partly drawn) [Example 159],< 6.30
3,CC(C)[C@H](NC(=O)N[C@H](C(=O)N1C[C@H]2[C@@H]([C@H]1C(=O)N[C@@H](CC(F)F)C(=O)NCCC(=O)O)C2(C)C)C(C)(C)C)C(=O)O [Example 160],< 6.30
4,CC1(C)C[C@H]2[C@H](CN(C(=O)[C@@H](NC(=O)OCc3ccccc3)C3CCCCC3)[C@@H]2C(=O)N[C@@H](CC(F)F)C(=O)O)O1 [Example 161],< 6.30
5,CC(C)(C)OC(=O)CCNC(=O)[C@H](CC(F)F)NC(=O)[C@@H]1[C@@H]2[C@H](CN1C(=O)[C@@H](NC(=O)OC(C)(C)C)C(C)(C)C)C2(C)C [Example 162],< 6.30
6,CCOC(=O)CCNC(=O)[C@H](CC(F)F)NC(=O)[C@@H]1[C@@H]2[C@H](CN1C(=O)[C@@H](NC(=O)OC(C)(C)C)C(C)(C)C)C2(C)C [Example 163],< 6.30
7,CC(C)[C@H](NC(=O)N[C@H](C(=O)N1C[C@H]2[C@@H]([C@H]1C(=O)N[C@@H](CC(F)F)C(N)=O)C2(C)C)C(C)(C)C)C(=O)OC(C)(C)C [Example 164],< 6.30
8,CC1(NC(=O)N[C@H](C(=O)N2C[C@H]3[C@@H]([C@H]2C(=O)N[C@@H](CC(F)F)C(=O)NCCC(=O)O)C3(C)C)C(C)(C)C)CCCCC1 [Example 165],< 6.30
9,"CN(C)C(=O)[C@@H](NC(=O)CNC(=O)[C@H](CC(F)F)NC(=O)[C@@H]1[C@@H]2[C@H](CN1C(=O)[C@@H](NC(=O)NC(C)(C)C)C(C)(C)C)C2(C)C)c1ccccc1 [Example 166] ({NHtBu-CO}-[Tle][Pro(3R,4S-CMe2)][Abu(4,4-F2)]G[Phg]-NMe2)",< 6.30
10,CC(C)(C)OC(=O)N[C@H](C(=O)N1C[C@H]2[C@@H]([C@H]1C(=O)NC(CC(F)F)C(=O)O)C2(C)C)C(C)(C)C (stereo partly drawn) [Example 167],< 6.30
11,"CN(C)C(=O)[C@@H](NC(=O)CCNC(=O)[C@H](CC(F)F)NC(=O)[C@@H]1[C@@H]2[C@H](CN1C(=O)[C@@H](NC(=O)OC(C)(C)C)C(C)(C)C)C2(C)C)c1ccccc1 [Example 168] (Boc-[Tle][Pro(3R,4S-CMe2)][Abu(4,4-F2)][βAla][Phg]-NMe2)",< 6.30
12,CC(C)(C)OC(=O)N[C@H](C(=O)N1C[C@H]2[C@@H]([C@H]1C(=O)N[C@@H](CC(F)F)C(=O)NCCC(=O)O)C2(C)C)C(C)(C)C [Example 169],< 6.30
13,COC(=O)[C@H](CC(F)F)NC(=O)[C@@H]1[C@H]2CC(C)(C)O[C@H]2CN1C(=O)[C@@H](NC(=O)OCc1ccccc1)C1CCCCC1 [Example 170],< 6.30
14,"CN(C)C(=O)[C@@H](NC(=O)CNC(=O)[C@H](CC(F)F)NC(=O)[C@@H]1[C@@H]2[C@H](CN1C(=O)[C@@H](NC(=O)OC(C)(C)C)C(C)(C)C)C2(C)C)c1ccccc1 [Example 171] (Boc-[Tle][Pro(3R,4S-CMe2)][Abu(4,4-F2)]G[Phg]-NMe2)",< 6.30
15,"CN(C)C(=O)[C@@H](NC(=O)CNC(=O)[C@H](CC(F)F)NC(=O)[C@@H]1[C@@H]2[C@H](CN1C(=O)[C@@H](NC(=O)NC1(C)CCCCC1)C(C)(C)C)C2(C)C)c1ccccc1 [Example 172] ({X2-CO}-[Tle][Pro(3R,4S-CMe2)][Abu(4,4-F2)]G[Phg]-NMe2)",< 6.30
16,COC(=O)c1ccc(CCNC(=O)[C@H](CC(F)F)NC(=O)[C@@H]2[C@H]3CC(C)(C)O[C@H]3CN2C(=O)[C@@H](NC(=O)OCc2ccccc2)C2CCCCC2)cc1 [Example 173],< 6.30
17,CC(C)[C@H](NC(=O)N[C@H](C(=O)N1C[C@H]2[C@@H]([C@H]1C(=O)N[C@@H](CC(F)F)C(=O)NCCC(=O)OC(C)(C)C)C2(C)C)C(C)(C)C)C(=O)OC(C)(C)C [Example 174],< 6.30

# Same assay, conditions: Ki, Table 3; rating; single chain NS4A21-32-GSGS-NS3 3-181 protease, 30° C., pH 6.5
row,Compound,pKi
1,CN(C[C@@H](NC(=O)N[C@H](C(=O)N1C[C@H]2[C@@H]([C@H]1C(=O)N[C@@H](CC(F)F)C(=O)NCCc1ccc(S(N)(=O)=O)cc1)C2(C)C)C(C)(C)C)C(C)(C)C)S(C)(=O)=O [Example 201],> 7.00
2,CN(C[C@@H](NC(=O)N[C@H](C(=O)N1C[C@H]2[C@@H]([C@H]1C(=O)N[C@@H](CC(F)F)C(=O)NCCc1cccc(Cl)c1)C2(C)C)C(C)(C)C)C(C)(C)C)S(C)(=O)=O [Example 202],> 7.00
3,CN(C[C@@H](NC(=O)N[C@H](C(=O)N1C[C@H]2[C@@H]([C@H]1C(=O)N[C@@H](CC(F)F)C(=O)NC1CC1)C2(C)C)C(C)(C)C)C(C)(C)C)S(C)(=O)=O [Example 203],< 6.30
4,CN(C[C@@H](NC(=O)N[C@H](C(=O)N1C[C@H]2[C@@H]([C@H]1C(=O)N[C@@H](CC(F)F)C(=O)NCCC#N)C2(C)C)C(C)(C)C)C(C)(C)C)S(C)(=O)=O [Example 204],< 6.30
5,CN(C[C@@H](NC(=O)N[C@H](C(=O)N1C[C@H]2[C@@H]([C@H]1C(=O)N[C@@H](CC(F)F)C(=O)NCC1CC1)C2(C)C)C(C)(C)C)C(C)(C)C)S(C)(=O)=O [Example 205],< 6.30
6,CC(C)CNC(=O)[C@H](CC(F)F)NC(=O)[C@@H]1[C@@H]2[C@H](CN1C(=O)[C@@H](NC(=O)N[C@H](CN(C)S(C)(=O)=O)C(C)(C)C)C(C)(C)C)C2(C)C [Example 206],< 6.30
7,CN(C[C@@H](NC(=O)N[C@H](C(=O)N1C[C@H]2[C@@H]([C@H]1C(=O)N[C@@H](CC(F)F)C(=O)NC1CCCC1)C2(C)C)C(C)(C)C)C(C)(C)C)S(C)(=O)=O [Example 207],< 6.30
8,CC(C)CCNC(=O)[C@H](CC(F)F)NC(=O)[C@@H]1[C@@H]2[C@H](CN1C(=O)[C@@H](NC(=O)N[C@H](CN(C)S(C)(=O)=O)C(C)(C)C)C(C)(C)C)C2(C)C [Example 208],< 6.30
9,CN(C[C@@H](NC(=O)N[C@H](C(=O)N1C[C@H]2[C@@H]([C@H]1C(=O)N[C@@H](CC(F)F)C(=O)NCC(C)(C)C)C2(C)C)C(C)(C)C)C(C)(C)C)S(C)(=O)=O [Example 209],< 6.30
10,CN(C[C@@H](NC(=O)N[C@H](C(=O)N1C[C@H]2[C@@H]([C@H]1C(=O)N[C@@H](CC(F)F)C(=O)NCC1CCCO1)C2(C)C)C(C)(C)C)C(C)(C)C)S(C)(=O)=O (stereo partly drawn) [Example 210],< 6.30
11,CCOCCCNC(=O)[C@H](CC(F)F)NC(=O)[C@@H]1[C@@H]2[C@H](CN1C(=O)[C@@H](NC(=O)N[C@H](CN(C)S(C)(=O)=O)C(C)(C)C)C(C)(C)C)C2(C)C [Example 211],< 6.30
12,CN(C[C@@H](NC(=O)N[C@H](C(=O)N1C[C@H]2[C@@H]([C@H]1C(=O)N[C@@H](CC(F)F)C(=O)NCc1cccs1)C2(C)C)C(C)(C)C)C(C)(C)C)S(C)(=O)=O [Example 212],< 6.30
13,CN(C[C@@H](NC(=O)N[C@H](C(=O)N1C[C@H]2[C@@H]([C@H]1C(=O)N[C@@H](CC(F)F)C(=O)NCC1CCCCC1)C2(C)C)C(C)(C)C)C(C)(C)C)S(C)(=O)=O [Example 213],< 6.30
14,CC(C)OCCCNC(=O)[C@H](CC(F)F)NC(=O)[C@@H]1[C@@H]2[C@H](CN1C(=O)[C@@H](NC(=O)N[C@H](CN(C)S(C)(=O)=O)C(C)(C)C)C(C)(C)C)C2(C)C [Example 214],< 6.30
15,CC(NC(=O)[C@H](CC(F)F)NC(=O)[C@@H]1[C@@H]2[C@H](CN1C(=O)[C@@H](NC(=O)N[C@H](CN(C)S(C)(=O)=O)C(C)(C)C)C(C)(C)C)C2(C)C)c1ccccc1 (stereo partly drawn) [Example 215],< 6.30
16,CN(C[C@@H](NC(=O)N[C@H](C(=O)N1C[C@H]2[C@@H]([C@H]1C(=O)N[C@@H](CC(F)F)C(=O)NCCc1cccs1)C2(C)C)C(C)(C)C)C(C)(C)C)S(C)(=O)=O [Example 216],> 7.00

# Source: US7449447B2, “Peptidomimetic NS3-serine protease inhibitors of hepatitis C virus” (priority 2003, dated 2008)
